Source: the NIST ThermoML archive (doi:10.1016/j.jct.2016.03.038)
Numbers after ± are expanded uncertainties.

Assay: mn = molality of the nth substance listed, in mol/kg
Details: Liquid, isochoric method

C [methane] + CCCCCC
mass density (273.1 K, 2850 kPa, m1 = 2.157): 655 ± 9 kg/m3 | mass density (273.1 K, 3620 kPa, m1 = 2.812): 648 ± 9 kg/m3 | mass density (273.1 K, 4700 kPa, m1 = 3.805): 638 ± 9 kg/m3 | mass density (273.1 K, 5670 kPa, m1 = 4.686): 628 ± 9 kg/m3 | mass density (273.1 K, 6920 kPa, m1 = 6.031): 616 ± 9 kg/m3 | mass density (273.1 K, 7900 kPa, m1 = 7.195): 604 ± 9 kg/m3 | mass density (273.1 K, 9190 kPa, m1 = 8.724): 596 ± 9 kg/m3 | mass density (283.15 K, 2500 kPa, m1 = 1.717): 650 ± 9 kg/m3 | mass density (283.15 K, 3570 kPa, m1 = 2.568): 640 ± 10 kg/m3 | mass density (283.15 K, 4740 kPa, m1 = 3.533): 632 ± 12 kg/m3 | mass density (283.15 K, 5840 kPa, m1 = 4.499): 620 ± 11 kg/m3 | mass density (283.15 K, 7010 kPa, m1 = 5.615): 610 ± 9 kg/m3 | mass density (283.15 K, 8560 kPa, m1 = 7.345): 594 ± 9 kg/m3 | mass density (293.15 K, 2360 kPa, m1 = 1.513): 643 ± 9 kg/m3 | mass density (293.15 K, 3340 kPa, m1 = 2.229): 635 ± 9 kg/m3 | mass density (293.15 K, 4410 kPa, m1 = 3.042): 627 ± 11 kg/m3 | mass density (293.15 K, 5620 kPa, m1 = 4.008): 615 ± 9 kg/m3 | mass density (293.15 K, 6860 kPa, m1 = 5.098): 604 ± 9 kg/m3 | mass density (293.15 K, 8400 kPa, m1 = 6.638): 590 ± 9 kg/m3
